From paper PMC3626250, “Effects of Borneol on Pharmacokinetics and Tissue Distribution of Notoginsenoside R1 and Ginsenosides Rg1 and Re in Panax notoginseng in Rabbits” (Journal of Analytical Methods in Chemistry, 2013) come the findings set out here.

In one series the test system is Caco-2 cells. Nature of the series: MTT cytotoxicity assay toward Caco-2 cells. The class given is cell-based. The conditions noted are these: chosen for transport study. The procedure: The Caco-2 cells were cultured in Dulbecco's modified Eagle's medium (DMEM) supplemented with 20% foetal bovine serum, 1% nonessential amino acids and penicillin-streptomycin, at 37°C in an atmosphere with a relative humidity of 95% and a CO2 flow of 5%. Medium was replaced every 2-3 days. When the cell monolayer reached 80% confluence, the cells were detached with a solution of 0.02% EDTA and 0.25% trypsin. The vinblastine-selected Caco-2 cells were cultivated in the presence of 10 nM vinblastine to induce P-glycoprotein (P-gp) expression. The culture medium was changed to a fresh medium without vinblastine 24 h before experiments, and the cells were used between passages 25 and 46. Prior to the transport study, cytotoxicity of NGR1, GRg1, GRe, and Borneol toward Caco-2 cells was determined using MTT assays. Noncytotoxic concentrations of 500 μM NGR1, GRg1, GRe, and 200 μM Borneol (dissolved in DMSO) were chosen for transport study.

The test system of the next series is Caco-2 cell monolayers. Briefly: TEER values of the Caco-2 cell monolayers. The series is classed as cell-based. The conditions noted are these: 200 μM Borneol with 500 μM NGR1, GRg1 and GRe, Caco-2 monolayers. As for the experimental part: In transport studies, vinblastine-selected Caco-2 cells were seeded on polycarbonate filter of transwells for 18–21 days before starting transport study, and the monolayers with the transepithelial electrical resistance (TEER) values greater than 300 Ωcm^2 were used. Caco-2 monolayers were rinsed twice with Hanks' balanced salt solution (HBSS) and preincubated in HBSS at 37°C for 30 min before starting experiments. To start the experiments, 500 μM of NGR1, GRg1, and GRe in final concentrations were added to the donor side with or without 200 μM Borneol and then incubated at 37°C. An aliquot of 0.1 mL samples were withdrawn from receiver chambers at 0, 30, 60, 90, and 120 min after the loading. After each sampling, 0.1 mL of HBSS was added to the receiver chamber to maintain a constant volume. All the experiments were performed five times in duplicate. […] During the above transport studies, the TEER values were also monitored before and at the end of each experiment. Apparent permeability coefficients (P app) were then calculated according to the following equation: (1) Papp=(dC/dt×V)/(A×C0), where dC/dt is the rate of the test compound appearing in the receiver chamber, V is the volume of the solution in the receiver chamber, A is the cell monolayer surface area, and C 0 is the initial concentration of the test compound added in the donor chamber. […]

Compound `CC1(C)C2CCC1(C)C(O)C2` (centres unmarked) [Borneol] gave a Noncytotoxic concentration with Caco-2 cells of 200 µM. In the series with Caco-2 cell monolayers, the “TEER values of the monolayers decreased reversibly to” value is reported as “about 23%”.
